Assay results taken from US10513731B2, “Modified nucleotides” (Illumina Cambridge Limited, priority 2002, dated 2019).

Legend:
DNA polymerase = conditions: eight termination assays, each with a different DNA polymerase; cited from earlier work
[1] = target: T1, polymerase (Thermococcus sp. 9° N exo −Y409V A485L) (Thermococcus sp., UniProt Q56366, A485L/D141A/E143A/Y409V); test: Multiple cycles of incorporation, deblocking and capping on hairpin DNA attached to streptavidin beads, analysed by gel; format: biochemical; conditions: 2 μM FFN, 100 nM polymerase, 65° C. 10-15 minutes; deblocking with TCEP 0.1M, 65° C. 15 minutes
T1 construct: purchased New England Biolabs
Experimental: By attaching a hairpin DNA (covalently attached self complementary primer/template) to a streptavidin bead The reaction can be performed over multiple cycles as shown in FIGS. 5 and 6.
Remove the storage buffer and wash the beads 3 times with TE buffer (Tris-HCl pH 8, 10 mM and EDTA, 1 mM). Resuspend in B & W buffer (10 mM Tris-HCl pH 7.5, 1 mM EDTA and 2.0 M NaCl), add biotinylated ^32P labelled hairpin DNA with appropriate overhanging template sequence. Allow to stand at room temperature for 15 minutes. Remove buffer and wash beads 3 times TE buffer.
To a solution of Tris-HCl pH 8.8 50 mM, Tween-20 0.01%, MgSO4 4 mM, MnCl2 0.4 mM (except cycle 1, 0.2 mM), add 2 μM FFN and 100 nM polymerase. This solution is then added to the beads and mixed thoroughly and incubated at 65° C. for 10-15 minutes. The reaction mixture is removed and the beads washed 3 times with TE buffer.
Tris-(2-carboxyethyl)phosphines trisodium salt (TCEP) (0.1M) is added to the beads and mixed thoroughly. The mixture was then incubated at 65° C. for 15 minutes. The deblocking solution is removed and the beads washed 3 times with TE buffer. […]
The reaction products can be analysed by placing the bead solution in the well of a standard 12% polyacrylamide DNA sequencing gel in 40% formamide loading buffer. […]

[2] = target: T1, polymerase (Thermococcus sp. 9° N exo −Y409V A485L); test: Enzyme incorporation of 3′-blocked dNTPs on a P32-labelled DNA primer/template, followed by a chase with native nucleoside triphosphates; format: biochemical
Experimental: (§1) To a 100 nM DNA primer/template (primer previously labelled with P32 and T4 polynucleotide kinase) in Tris-HCl pH 8.8 50 mM, Tween-20 0.01%, and MgSO4 4 mM, add 2 μM compound 6 and 100 nM polymerase (Thermococcus sp. 9° N exo ^−Y409V A485L supplied by New England Biolabs). The template consists of a run of 10 adenine bases to show the effect of the block. The reaction is heated to 65 C for 10 mins. To show complete blocking, a chase is performed with the four native, unblocked nucleoside triphosphates.
as §1, with “compound 38” for “compound 6”

T1 sequence (Q56366 whole entry D141A/E143A/Y409V/A485L): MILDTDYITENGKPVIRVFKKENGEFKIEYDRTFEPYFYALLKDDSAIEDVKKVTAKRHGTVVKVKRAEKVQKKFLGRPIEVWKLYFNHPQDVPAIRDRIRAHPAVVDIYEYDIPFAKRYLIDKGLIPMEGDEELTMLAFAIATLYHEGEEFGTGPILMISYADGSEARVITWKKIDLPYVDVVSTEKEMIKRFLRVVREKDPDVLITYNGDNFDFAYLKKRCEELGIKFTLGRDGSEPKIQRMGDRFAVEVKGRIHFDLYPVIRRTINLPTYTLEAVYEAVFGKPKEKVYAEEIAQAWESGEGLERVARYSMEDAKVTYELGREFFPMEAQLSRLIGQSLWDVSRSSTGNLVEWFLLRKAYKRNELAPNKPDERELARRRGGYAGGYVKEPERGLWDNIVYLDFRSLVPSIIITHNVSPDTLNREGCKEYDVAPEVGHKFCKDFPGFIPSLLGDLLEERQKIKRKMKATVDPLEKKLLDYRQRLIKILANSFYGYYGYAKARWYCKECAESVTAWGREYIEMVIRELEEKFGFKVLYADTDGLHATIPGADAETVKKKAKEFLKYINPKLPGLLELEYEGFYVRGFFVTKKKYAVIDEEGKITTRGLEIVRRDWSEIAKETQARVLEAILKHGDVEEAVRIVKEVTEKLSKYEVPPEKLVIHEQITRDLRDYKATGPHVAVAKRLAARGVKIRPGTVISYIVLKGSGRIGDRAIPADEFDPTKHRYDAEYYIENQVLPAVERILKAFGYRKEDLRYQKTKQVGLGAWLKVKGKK

## C=CCO[C@H]1C[C@H](n2cnc3c(N)ncnc32)O[C@@H]1COP(=O)(O)OP(=O)(O)OP(=O)(O)O [3′-allyl dATP, 3′allyl deoxyriboadenosine 5′-triphosphate]
DNA polymerase
  ability to terminate DNA synthesis: terminate DNA synthesis in a single termination assay, out of eight

## CCN1/C(=C/C=C/C2=[N+](CCCCCC(=O)NCCSSCCC(=O)NCC#Cc3cn(C4CC(OCN=[N+]=[N-])C(COP(=O)(O)OP(=O)(O)OP(=O)(O)O)O4)c(=O)[nH]c3=O)c3ccc(S(=O)(=O)[O-])cc3C2(C)C)C(C)(C)c2cc(S(=O)(=O)O)ccc21 (centres unmarked) [compound 6]
[1]
  cycles of incorporation: six
[2]; 2 μM compound, 100 nM polymerase, 100 nM primer/template, template with run of 10 adenine bases, 65 C for 10 mins
  incorporation of the blocked nucleotide: Quantitative incorporation
[2]; chase with the four native, unblocked nucleoside triphosphates
  block to further incorporation: effective block to further incorporation

## CCN1/C(=C/C=C/C2=[N+](CCCCCC(=O)NCCSSCCC(=O)NCC#Cc3cn([C@H]4CC(OCN=[N+]=[N-])[C@@H](COP(=O)(O)OP(=O)(O)OP(=O)(O)O)O4)c4nc(N)[nH]c(=O)c34)c3ccc(S(=O)(=O)[O-])cc3C2(C)C)C(C)(C)c2cc(S(=O)(=O)O)ccc21 (some centres unmarked) [compound 24]
[1]
  cycles of incorporation: Two and two
